From article PMC8000185 (International Journal of Molecular Sciences, 2021)

Assays:
NHE1 = biological target: T1, NHE1 (Homo sapiens, UniProt P19634); experiment: Plate-based NHE1 inhibition assay (BCECF pHi recovery, 96-well plate reader); assay type: cell-based; settings: MDA-MB-231 cells, plate reader
T1 construct: endogenous in cells; host or cells: MDA-MB-231
Description: To perform NHE1 screening with increased throughput, we adapted the conventional cuvette-based NHE1 activity assay to a simple new 96-well plate format using MDA-MB-231 cells that were compatible with common laboratory fluorescence plate readers (see Section 4 for details).
Culture media were removed and replaced with 200 µL 0.2% FBS-containing media with incubation for 3–4 h to stimulate NHE1 activity, followed by incubation for 30 min in the presence of 5 µM 2′,7′-bis(carboxyethyl)-5(6)-carboxyfluorescein-acetoxymethyl ester (BCECF-AM, cat #ab143463, Abcam, Cambridge, United Kingdom). Cells were then washed with 100 µL/well Na^+-free acid-load buffer: 10 mM NH4Cl, 1.8 mM CaCl2, 90 mM N-methyl-D-glucamine (from 1 M stock titrated to pH 7.4 with HCl), 5 mM glucose, 15 mM HEPES, 5 mM KCl, 1 mM MgCl2 (pH 7.5, adjusted with KOH), and incubated at 37 °C for a further 30 min. Acid-load buffer was removed and replaced with Na^+-containing assay buffer: 100 mM NaCl, 1.8 mM CaCl2, 5 mM glucose, 15 mM HEPES, 5 mM KCl, 1 mM MgCl2 containing serial dilution of each compound or DMSO vehicle, and changes in fluorescence were read immediately using a BMG Labtech POLARstar OMEGA (BMG Labtech GmbH, Offenburg, Germany) plate reader according to the parameters in Table S1. Compounds were tested at n = 3 technical replicates per concentration per plate. BCECF-AM-free cells were treated with matched concentrations of each compound to correct for intrinsic fluorescence. DMSO was present in all wells at a final concentration of 1% v/v. Inhibition of NHE1-mediated pHi recovery was determined by ratiometric calculation of the change in blank-corrected pH-sensitive fluorescence divided by the isobestic fluorescence for each well over time. […] (0% activity) controls present on each plate. IC50 values were determined through fitting of Log-10 transformed data using the “log(inhibitor) versus normalised response–variable slope” non-linear function in GraphPad PRISM v8.0 software package (GraphPad Software, San Diego, CA, USA).

[1] = Cell viability (cytotoxicity) assay; assay type: cell-based; settings: human, MDA-MB-231 cells, 48 h treatment
Description: On the day of treatment, respective compounds were serially diluted using a semi-logarithmic dilution series from 20 mM stocks in neat DMSO into DMEM-high glucose media (10% v/v FBS) in a separate 96-well plate and under sterile conditions. Thereafter, 10 μL of the diluted compounds at their respective concentrations (n = 4) were added to the cells. […] Vehicle media blanks or drug blanks were also included to correct for inherent colour of the compounds and phenol red-containing media. Following 48 h treatment, 20 μL CellTitre 96® Aqueous One Solution Cell Proliferation Assay (Promega, Madison, USA) was added to each well, plates were incubated for 2 h, and absorbance was measured at 490 nm using a SpectraMax Plus 384-well plate reader (Molecular Devices LLC, San Jose, USA) and Softmax PRO v7.0 software. Blank-corrected data were analysed and graphed using GraphPad PRISM v8.0 software (GraphPad Software, San Diego, CA USA).

[2] = biological target: T2, urokinase from human kidney cells (human uPA) (Homo sapiens, UniProt P00749); experiment: uPA inhibition assay (fluorescence-based, purified enzyme); assay type: biochemical; settings: for IC50: purified enzyme, Z-Gly-Gly-Arg-AMC substrate, number in parentheses after value, read-out: uPA IC50
T2 construct: low molecular weight active human uPA; purchased Sigma-Aldrich U4010; host or cells: human kidney cells

T1 sequence (P19634 whole entry): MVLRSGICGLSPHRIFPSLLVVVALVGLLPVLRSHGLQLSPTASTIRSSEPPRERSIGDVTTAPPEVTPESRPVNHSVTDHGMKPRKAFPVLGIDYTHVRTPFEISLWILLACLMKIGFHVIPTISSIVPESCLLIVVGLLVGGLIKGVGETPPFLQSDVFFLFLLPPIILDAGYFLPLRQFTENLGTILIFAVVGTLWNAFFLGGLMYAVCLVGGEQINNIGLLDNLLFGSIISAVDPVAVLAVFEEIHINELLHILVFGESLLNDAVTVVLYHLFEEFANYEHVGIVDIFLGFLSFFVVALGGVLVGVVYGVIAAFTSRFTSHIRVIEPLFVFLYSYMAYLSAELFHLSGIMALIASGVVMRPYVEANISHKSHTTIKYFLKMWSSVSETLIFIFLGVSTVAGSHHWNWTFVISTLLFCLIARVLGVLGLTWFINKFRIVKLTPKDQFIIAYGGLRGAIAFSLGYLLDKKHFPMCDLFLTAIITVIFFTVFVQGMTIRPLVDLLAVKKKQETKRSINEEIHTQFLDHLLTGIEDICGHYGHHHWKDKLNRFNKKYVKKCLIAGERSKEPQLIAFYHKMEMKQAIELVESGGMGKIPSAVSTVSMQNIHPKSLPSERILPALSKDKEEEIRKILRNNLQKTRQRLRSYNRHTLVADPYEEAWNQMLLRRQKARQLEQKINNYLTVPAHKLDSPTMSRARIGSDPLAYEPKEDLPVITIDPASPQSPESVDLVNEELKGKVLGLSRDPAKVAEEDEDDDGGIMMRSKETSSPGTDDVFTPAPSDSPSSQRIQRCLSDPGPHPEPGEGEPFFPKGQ

inhibition at 1 µM (NHE1) [%] | NHE1 Inhibition (%) 10 μM (NHE1; 10 μM) | inhibition at 10 µM (NHE1; 10 μM) [%] | IC50 [2] [nM] | inhibition at 2.5 µM ([2]; @ 2,500 nM, read-out: uPA inhibition at single concentration (printed in uPA IC50 column)) [%] | Structure (SMILES) | IC50 at 48 h [1] [µM]
28 | – | 80 | 16200 | – | N=C(N)NC(=O)c1nc(-c2ccc(C(F)(F)F)cc2)c(C2CC2)nc1N [compound 40] | 26.6
29 | – | 81 | 797 ± 15 | – | N=C(N)NC(=O)c1nc(-c2cc3ccccc3o2)c(N2CCOCC2)nc1N [compound 36] | 36.7
0 | – | 15 | 67 ± 3 | – | N=C(N)NC(=O)c1nc(-c2cnc(NCCO)nc2)c(N2CCCCCC2)nc1N [compound 28] | > 100
77 | – | 87 | 563 ± 29 | – | N=C(N)NC(=O)c1nc(-c2cncnc2)c(N2CCOCC2)nc1N [compound 41] | > 100
0 | – | 81 | 113 ± 4 | – | N=C(N)NC(=O)c1nc(-c2cc3ncccc3o2)c(N2CCCC2)nc1N [compound 38] | > 100
55 | – | 96 | 149 ± 17 | – | N=C(N)NC(=O)c1nc(-c2cc3ccccc3o2)c(N2CCCOCC2)nc1N [compound 37] | 54
18 | – | 85 | 546 ± 24 | – | N=C(N)NC(=O)c1nc(-c2cc3ccccc3o2)c(N2CCCC2)nc1N [compound 31] | 22.7

Continued, compound first:

Structure (SMILES) | inhibition at 1 µM (NHE1) [%] | NHE1 Inhibition (%) 10 μM (NHE1; 10 μM) | inhibition at 10 µM (NHE1; 10 μM) [%] | IC50 [2] [nM] | inhibition at 2.5 µM ([2]; @ 2,500 nM, read-out: uPA inhibition at single concentration (printed in uPA IC50 column)) [%] | IC50 at 48 h [1] [µM]
N=C(N)NC(=O)c1nc(Cl)c(N2CCCCCC2)nc1N [HMA, 5-(N,N-hexamethylene)amiloride, reference compound] | 66 | completely blocking activity | 100 | 2210 | – | 32.1
COc1ccc2oc(-c3nc(C(=O)NC(=N)N)c(N)nc3N3CCCCCC3)cc2c1 [compound 15] | 34 | – | 91 | 1690 | – | 25.1
N=C(N)NC(=O)c1nc(-c2cc3cc(F)ccc3o2)c(N)nc1N [compound 8] | 0 | – | 75 | 954 ± 72 | – | 10.6
N=C(N)NC(=O)c1nc(-c2cc3cc(F)cc(F)c3o2)c(N)nc1N [compound 16] | 7 | – | 52 | 609 ± 26 | – | 4.7
N=C(N)NC(=O)c1nc(-c2cc3cc(Cl)ccc3o2)c(N2CCCCCC2)nc1N [compound 11] | 0 | – | 0 | – | 49 | 26.4
N=C(N)NC(=O)c1nc(-c2cc3cc(F)ccc3o2)c(N2CCCCCC2)nc1N [compound 9] | 22 | – | 100 | 187 ± 17 | – | 9.6
N=C(N)NC(=O)c1nc(-c2cc3ncccc3o2)c(N)nc1N [compound 20] | 0 | – | 31 | 453 | – | > 100
N=C(N)NC(=O)c1nc(-c2cc3ccccc3o2)c(N2CCCCCC2)nc1N [compound 5] | 39 | – | 72 | 297 ± 16 | – | 19.1
Cc1ccc2oc(-c3nc(C(=O)NC(=N)N)c(N)nc3N3CCCCCC3)cc2c1 [compound 7] | 5 | – | 100 | 1180 | – | 8.8
COc1ncc(-c2nc(C(=O)NC(=N)N)c(N)nc2N)cn1 [compound 25] | 0 | – | 18 | 333 ± 22 | – | > 100
N=C(N)NC(=O)c1nc(-c2cnc(N)nc2)c(N2CCCCCC2)nc1N [compound 27] | 0 | – | 11 | 34 ± 5 | – | > 100
N=C(N)NC(=O)c1nc(-c2ccc(C(F)(F)F)cc2)c(N)nc1N [compound 22] | – | – | – | 5100 | – | 82.4
N=C(N)NC(=O)c1nc(-c2cc3cnccc3o2)c(N)nc1N [compound 18] | – | – | – | 1010 | – | 26.4
